Results: US20090076006A1, “HSP90 INHIBITORS CONTAINING A ZINC BINDING MOIETY” (priority 2007, published 2009)
pIC50: −log10 of the molar value.

Legend:
[1] = tested on: HDAC (HeLa nuclear extract); experiment: HDAC fluorimetric assay (inhibition of HDAC enzymatic activity); format: biochemical; settings: HDAC fluorimetric assay kit
Experimental: (c) An In Vitro Assay which Determines the Ability of a Test Compound to Inhibit HDAC Enzymatic Activity.
HDAC inhibitors were screened using an HDAC fluorimetric assay kit (AK-500, Biomol, Plymouth Meeting, Pa.). Test compounds were dissolved in dimethylsulphoxide (DMSO) to give a 20 mM working stock concentration. Fluorescence was measured on a WALLAC Victor 2 plate reader and reported as relative fluorescence units (RFU). Data were plotted using GraphPad Prism (v4.0a) and IC50's calculated using a sigmoidal dose response curve fitting algorithm. Each assay was setup as follows: Defrosted all kit components and kept on ice until use. Diluted HeLa nuclear extract 1:29 in Assay Buffer (50 mM Tris/Cl, pH 8.0, 137 mM NaCl, 2.7 mM KCl, 1 mM MgCl2). Prepared dilutions of Trichostatin A (TSA, positive control) and tested compounds in assay buffer (5× of final concentration). Diluted Fluor de Lys™ Substrate in assay buffer to 100 uM (50 fold=2× final). Diluted Fluor de Lys™ developer concentrate 20-fold (e.g. 50 μl plus 950 μl Assay Buffer) in cold assay buffer. Second, diluted the 0.2 mM Trichostatin A 100-fold in the 1× Developer (e.g. 10 μl in 1 ml; final Trichostatin A concentration in the 1× Developer=2 μM; final concentration after addition to HDAC/Substrate reaction=1 μM). Added Assay buffer, diluted trichostatin A or test inhibitor to appropriate wells of the microtiter plate. Added diluted HeLa extract or other HDAC sample to all wells except for negative controls. Allowed diluted Fluor de Lys™ Substrate and the samples in the microtiter plate to equilibrate to assay temperature (e.g. 25 or 37° C. Initiated HDAC reactions by adding diluted substrate (25 μl) to each well and mixing thoroughly. Allowed HDAC reactions to proceed for 1 hour and then stopped them by addition of Fluor de Lys™ Developer (50 μl). Incubated plate at room temperature (25° C.) for 10-15 min. Read samples in a microtiter-plate reading fluorimeter capable of excitation at a wavelength in the range 350-380 nm and detection of emitted light in the range 440-460 nm.

[2] = target: T1, HSP90 (Homo sapiens, UniProt P07900); experiment: HSP90 assay (chaperone luciferase refolding / competition binding fluorescence polarization); settings: Table B does not say which of the two described
T1 construct: purchased Assay Design SPP-776F
Experimental: (a) An In Vitro Assay which Determines the Ability of a Test Compound to Inhibit Hsp90 Chaperone Activity.
The Hsp90 chaperone assay was performed to measure the ability of HSP90 protein to refold the heat-denatured luciferase protein. HSP90 was first incubated with different concentrations of test compounds in denaturation buffer (25 mM Tris, pH7.5, 8 mM MgSO4, 0.01% bovine gamma globulin and 10% glycerol) at room temperature for 30 min. Luciferase protein was added to denaturation mix and incubated at 50° C. for 8 min. The final concentration of HSP90 and luciferase in denaturation mixture were 0.375 μM and 0.125 μM respectively. A 5 μl sample of the denatured mix was diluted into 25 μl of renaturation buffer (25 mM Tris, pH7.5, 8 mM MgSO4, 0.01% bovine gamma globulin and 10% glycerol, 0.5 mM ATP, 2 mM DTT, 5 mM KCl, 0.3 μM HSP70 and 0.15 μM HSP40). The renaturation reaction was incubated at room temperature for 150 min, followed by dilution of 10 μl of the renatured sample into 90 μl of luciferin reagent (Luclite, PerkinElmer Life Science). The mixture was incubated at dark for 5 min before reading the luminescence signal on a TopCount plate reader (PerkinElmer Life Science).
(b) HSP90 Competition Binding (Fluorescence Polarization) Assay.
A fluorescein isothiocyanate (FITC) labeled GM was purchase from InvivoGen (ant-fgl-1). The interaction between HSP90 and labeled GM forms the basis for the fluorescence polarization assay. A free and fast-tumbling FITC labeled GM emits random light with respect to the plane of polarization plane of excited light, resulting in a lower polarization degree (mP) value. When GM is bound to HSP90, the complex tumble slower and the emitted light is polarized, resulting in a higher mP value. This competition binding assay was performed in 96-well plate and with each assay contained 10 and 50 nM of labeled GM and purified HSP90 protein (Assay Design, SPP-776F) respectively. The assay buffer contained 20 mM HEPES (pH 7.3), 50 mM KCl, 1 mM DTT, 50 mM MgCl2, 20 mM Na2MoO4, 0.01% NP40 with 0.1 mg/ml bovine gamma-globulin. Compounds are diluted in DMSO and added to the final assay before labeled GM with concentration range from 20 uM to 2 nM. mP value was determined by BioTek Synergy II with background subtraction after 24 hours of incubation at 4° C.

Row | Structure (SMILES) | melting point | pIC50 [1] | pIC50 [2]
1 | CC(C)c1cc(-c2onc(C(=O)NCCCCCC(=O)NO)c2-c2ccc(CN3CCOCC3)cc2)c(O)cc1O [Compound 27, 5-(2,4-Dihydroxy-5-isopropylphenyl)-N-(6-(hydroxyamino)-6-oxohexyl)-4-(4-(morpholinomethyl)phenyl)isoxazole-3-carboxamide] | 164 to 166 °C | 6.00 to 7.00 | ≥ 7.00
2 | CC(C)c1cc(-c2onc(C(=O)NCCCCCCC(=O)NO)c2-c2ccc(CN3CCOCC3)cc2)c(O)cc1O [Compound 28, 5-(2,4-Dihydroxy-5-isopropylphenyl)-N-(7-(hydroxyamino)-7-oxoheptyl)-4-(4-(morpholinomethyl)phenyl)isoxazole-3-carboxamide] | 109 to 111 °C | ≥ 7.00 | ≥ 7.00
3 | CC(C)c1cc(-c2onc(C(=O)NCCCCCCCC(=O)NO)c2-c2ccc(CN3CCOCC3)cc2)c(O)cc1O [Compound 29, 5-(2,4-Dihydroxy-5-isopropylphenyl)-N-(8-(hydroxyamino)-8-oxooctyl)-4-(4-(morpholinomethyl)phenyl)isoxazole-3-carboxamide] | 117 to 119 °C | 6.00 to 7.00 | ≥ 7.00
